{"source": "patent US11058738B2", "about": "“Herbal preparation for accelerating wounds and skin inflammations healing, especially for treatment of herpes and acne, and its application” (WYŻSZA SZKOŁA MEDYCZNA W BIAŁYMSTOKU, priority 2015, dated 2021)", "key": {"open wounds": {"tested_on": "open wounds", "test": "Epithelialization and wound healing in mammals with open wounds", "format": "in vivo", "procedure": "A following semi-solid preparation was prepared for the study which was obtained by mixing together: • 40% w/w Melittis melissophyllum L. from the whole plant, • 20% w/w of 96% ethyl alcohol, • 40% w/w Vaseline album—a hydrocarbon based substance used in lipophilic ointments.\nThe substance, etched by ethyl alcohol, is dissolved with help of heat in a smooth ointment medium for better dispersion ofbiologically active substances contained in the test extract. It could also be mixed in a cold lipophilic medium. It is important that the substance has been dissolved in the medium at the concentration below saturation.\nIn the study three groups of mammals with open wounds were involved:\nI control group—no treatment was applied to the wound, even antiseptic one.\nII group—a typical antiseptic agent was used, chlorhexidine, in accordance with a standard protocol regarding a treatment of an infected wound.\nIII group—the herbal preparation with a Melittis melissophyllum L. extract was used.\nThe herbal preparation applied in a treatment of open wounds. It was used in a similar way as described in Example I. The experiment confirmed that the herbal preparation based on Melittis melissophyllum L. definitely accelerates repair processes during the wound healing."}, "[1]": {"tested_on": "neutrophil white blood cells from the wound surface", "test": "Phagocytic activity of white blood cells (latex particles) from the healing wound surface", "format": "in vivo, mammals", "procedure": "Phagocytic activity of white blood cells was assessed using phagocytic index (PI)—a percentage of phagocytes containing absorbed latex particles, and an amount of phagocytes (IF)—the average number of particles per phagocyte.\nThe established phagocytic activity of neutrophil white blood cells from the wound surface in different periods of the wound healing, i.e. an increase in phagocytic index and number of phagocytes due to presence of the Melittis melissophyllum L. extract, is shown in Table 2. It was found for the first time that the Melittis melissophyllum L. extract has a high therapeutic activity during a wound healing period in all stages of the wound healing, accelerating the wound repair process and cells proliferation, therefore ensuring the complete wound healing much earlier."}}, "data": [{"molecule": "[H]/N=C(\\N/C(=N/[H])NCCCCCCNC(=N)NC(=N)Nc1ccc(Cl)cc1)Nc1ccc(Cl)cc1", "note": "[Chlorhexidine, chlorhexidine]", "values": [{"measurement": "complete epithelialization of the wound surface", "setting": "open wounds", "value": "12-th or 13-th"}, {"measurement": "Beginning epitelialization", "setting": "open wounds; topical", "value": "3.9 ± 0.4 24-hours"}, {"measurement": "Beginning of rejection of the crust", "setting": "open wounds; topical", "value": "7.6 ± 0.5 24-hours"}, {"measurement": "Complete wound healing", "setting": "open wounds; topical", "value": "11.25 ± 0.19 24-hours"}, {"measurement": "Full crust rejection", "setting": "open wounds; topical", "value": "10.5 ± 0.3 24-hours"}, {"measurement": "IF (amount of phagocytes, average number of particles per 1 phagocyte)", "setting": "[1]; 3 day after granulation", "value": "10.0 ± 2.5"}, {"measurement": "PI (phagocytic index, percentage of phagocytes containing latex particles)", "setting": "[1]; 3 day after granulation", "value": "61.60 ± 9.49", "unit": "%"}, {"measurement": "IF (amount of phagocytes, average number of particles per 1 phagocyte)", "setting": "[1]; 5 day after granulation", "value": "14.0 ± 3.0"}, {"measurement": "PI (phagocytic index, percentage of phagocytes containing latex particles)", "setting": "[1]; 5 day after granulation", "value": "59.01 ± 4.58", "unit": "%"}, {"measurement": "IF (amount of phagocytes, average number of particles per 1 phagocyte)", "setting": "[1]; 7 day after granulation", "value": "11.0 ± 3.0"}, {"measurement": "PI (phagocytic index, percentage of phagocytes containing latex particles)", "setting": "[1]; 7 day after granulation", "value": "48.20 ± 5.51", "unit": "%"}]}]}
